ChEMBL document CHEMBL1136271, “Design and synthesis of potent, orally bioavailable dihydroquinazolinone inhibitors of p38 MAP kinase” (Bioorg Med Chem Lett, 2003)

Experiments:
Assay type in all cases: ADME, organism-based
[1] = Oral bioavailability in rat; details: in vivo
[2] = Plasma clearance in rat; details: read-out: Clp
[3] = Area under curve was determined in rat after PO administration; parameters: concentration or dose not given beside the values; details: in vivo
[4] = Volume distribution in rat; details: in vivo
[5] = Half-life in rat; details: in vivo

bioavailability [1]	clearance [2]	AUC [3]	Vd [4]	half-life [5]	SMILES
20%	56.3 mL/min/kg	0.11 µM·h	7.5 L/kg	132 min	CCN1CCC(c2cc(-c3ccc(F)cc3Cl)c3c(c2)N(c2c(Cl)cccc2Cl)C(=O)NC3)CC1
9.2%	49.8 mL/min/kg	0.06 µM·h	5.3 L/kg	90 min	CN1CCC(c2cc(-c3ccc(F)cc3Cl)c3c(c2)N(c2c(Cl)cccc2Cl)C(=O)NC3)CC1
67.7%	35.2 mL/min/kg	0.58 µM·h	6 L/kg	132 min	CC(C)(C)N1CCC(c2cc(-c3ccc(F)cc3Cl)c3c(c2)N(c2c(Cl)cccc2Cl)C(=O)NC3)CC1
16%	84.8 mL/min/kg	0.06 µM·h	12.2 L/kg	114 min	CC(C)N1CCC(c2cc(-c3ccc(F)cc3Cl)c3c(c2)N(c2c(Cl)cccc2Cl)C(=O)NC3)CC1
59.3%	51.7 mL/min/kg	0.39 µM·h	8.1 L/kg	150 min	O=C1NCc2c(-c3ccc(F)cc3Cl)cc(C3CCN(C4CC4)CC3)cc2N1c1c(Cl)cccc1Cl

Further lines, the compound ahead of its results:

SMILES	bioavailability [1]	clearance [2]	AUC [3]	Vd [4]	half-life [5]
O=C1NCc2c(-c3ccc(F)cc3Cl)cc(CN3CCNCC3)cc2N1c1c(Cl)cccc1Cl	15.7%	140 mL/min/kg	0.04 µM·h	18.6 L/kg	168 min
O=C1NCc2c(-c3ccc(F)cc3Cl)cc(C3CCN(CC4CC4)CC3)cc2N1c1c(Cl)cccc1Cl	22.6%	50.9 mL/min/kg	0.15 µM·h	6.3 L/kg	114 min
CC(C1CC1)N1CCC(c2cc(-c3ccc(F)cc3Cl)c3c(c2)N(c2c(Cl)cccc2Cl)C(=O)NC3)CC1 (configuration not stated)	38%	31.1 mL/min/kg	0.36 µM·h	4.7 L/kg	120 min
O=C1NCc2c(-c3ccc(F)cc3Cl)cc(C3CCNCC3)cc2N1c1c(Cl)cccc1Cl	0%	72.3 mL/min/kg	–	7.8 L/kg	120 min
O=C1NCc2c(-c3ccc(F)cc3Cl)cc(C3CCN(CC4CCC4)CC3)cc2N1c1c(Cl)cccc1Cl	11.6%	24.2 mL/min/kg	0.14 µM·h	2.5 L/kg	96 min
O=C1NCc2c(-c3ccc(F)cc3F)cc(C3CCNCC3)cc2N1c1c(Cl)cccc1Cl	4.3%	58.6 mL/min/kg	0.02 µM·h	13.6 L/kg	198 min
O=C1NCc2c(-c3ccccc3Cl)cc(OC3CCNCC3)cc2N1c1c(Cl)cccc1Cl	6.3%	116 mL/min/kg	0.02 µM·h	21 L/kg	180 min
O=C1NCc2c(-c3ccccc3Cl)cc(C3CCNCC3)cc2N1c1c(Cl)cccc1Cl	0%	181 mL/min/kg	–	21.4 L/kg	150 min
O=C(c1cc(-c2ccc(F)cc2F)c2c(c1)N(c1c(Cl)cccc1Cl)C(=O)NC2)N1CCNCC1	1.5%	94.7 mL/min/kg	–	12.8 L/kg	138 min
O=C1NCc2c(-c3ccc(F)cc3Cl)cc(C3CCN(C4CCC4)CC3)cc2N1c1c(Cl)cccc1Cl	24.7%	53.7 mL/min/kg	0.14 µM·h	6.6 L/kg	102 min
O=C1NCc2c(-c3ccccc3Cl)cc(N3CCNCC3)cc2N1c1c(Cl)cccc1Cl	22.7%	34.4 mL/min/kg	0.22 µM·h	4.3 L/kg	96 min
